Ten substances from patent US20220354963A1, “EXTRACELLULAR VESICLE LINKED TO MOLECULES AND USES THEREOF” (Codiak BioSciences, Inc., priority 2019, published 2022) can be followed below.

A word on the IC20: it is the concentration needed for an effect of 20%. The term IC50 denotes the midpoint of a concentration-inhibition curve. A word on the IC80: it is the point of the concentration-response curve where the effect stands at 80%.

The test system of one data set is NRas mRNA. Nature of the data set: NRas mRNA expression in HEK-293 cells, branched DNA assay. More on the design: NRAS max inhibition: unit not given here. The format is cell-based, human. The settings on record: for IC20 / IC50 / IC80 / max. inhib. [%]:: HEK293 cells: dose-response; for NRAS max inhibition: Table 6. The procedure: The ASOs of the present disclosure were tested for their ability to reduce NRas mRNA expression in HEK-293 cells. The HEK-293 cells were grown in cell culture media and seeded onto a 96 well plate at a density of 20,000 cells/well. ASOs were tested in two separate cohorts: 2 doses or 5 doses were given to the HEK-293 cells (See TABLES 4, 5 and 6) at final concentrations of 20 nM and 2 nM respectively. The assay used Lipofectamine2000 transfection and a 48 hr treatment cycle, with incubation at 37° C. and 5% C02. Analysis of the mRNA expression was then carried out using a branched DNA assay.

A further data set has as its system GAPDH. Kind of data set: GAPDH inhibition in HEK-293 cells, same assay. The format is cell-based, human. Particulars: for 2D GAPDH 20 nM inhibition: 2D (dual-dose); for GAPDH max inhibition: Table 6. Also on record: GAPDH max inhibition: unit not given here.

Consider “185 (TCCGAGAGTGTTGCCTCGCA; chemistry not given here) [compound 185]”, for which, in the data set with NRas mRNA, the IC20 turned out to be 0.074 nM, the IC50 worked out at 0.349 nM, the 80% effect level (IC80) was put at 3.8 nM and the “max. inhib. [%]:” value came to 85.4%.

On to “253 (CGGCCAAACAGCGTAAC; chemistry not given here) [compound 253]”, for which, in the data set on NRas mRNA, the IC20 worked out at 0.108 nM, 0.461 nM corresponded to half-maximal inhibition (IC50), the IC80 is 2.79 nM and the “max. inhib. [%]:” value is 90.4%. In the data set on NRas mRNA, the NRAS max inhibition was 94.40. Besides, in the data set on GAPDH, the “2D GAPDH 20 nM inhibition” value amounted to 40.44 and the GAPDH max inhibition stood at 29.34.

As for “201 (CACCAGGGAACATCTCGGGG; chemistry not given here) [compound 201]”, in the data set on NRas mRNA, it took 0.024 nM to reach the 20% level (IC20), inhibition was half-maximal at 0.1 nM (IC50), the IC80 is 0.455 nM and the “max. inhib. [%]:” value came out at 97.2%. The substance further came in with an NRAS max inhibition with NRas mRNA of 98.45. Further, in the data set with GAPDH, the “2D GAPDH 20 nM inhibition” value came to 16.86 and the GAPDH max inhibition was 45.30.

Consider “SEQ ID NO: 236: NRas ASO, starting nucleotide 421, length 20 (CCCCGAGATGTTCCCTGGTG; chemistry not given here)”, for which, in the data set on NRas mRNA, the IC20 amounted to 0.053 nM, 0.349 nM corresponded to half-maximal inhibition (IC50), the IC80 was 4.78 nM and the “max. inhib. [%]:” value was found to be 87.3%. This substance registered an NRAS max inhibition in the data set with NRas mRNA of 91.51. In the data set on GAPDH, the “2D GAPDH 20 nM inhibition” value was found to be 34.05 and the GAPDH max inhibition worked out at 40.06.

In the case of “231 (GCCGGGCAGAAACTCCGCTG; chemistry not given here) [compound 231]”, in the data set with NRas mRNA, the IC20 was 0.18 nM, the IC50 is 0.538 nM, it took 2.1 nM to reach the 80% level (IC80) and the “max. inhib. [%]:” value is 90.4%. The same substance registered an NRAS max inhibition in the data set on NRas mRNA of 93.63. In the data set on GAPDH, the “2D GAPDH 20 nM inhibition” value is given as 36.92 and the GAPDH max inhibition worked out at 29.21.

Turning to “264 (GCGGAGTTTCTGCCCGGCCA; chemistry not given here) [compound 264]”, in the data set on NRas mRNA, it took 0.039 nM to reach the 20% level (IC20); the midpoint of inhibition, the IC50, lay at 0.229 nM; the 80% effect level (IC80) was put at 2.43 nM; the “max. inhib. [%]:” value was 88.5%. This substance gave an NRAS max inhibition in the data set on NRas mRNA of 91.73. Also, in the data set on GAPDH, the “2D GAPDH 20 nM inhibition” value was 10.43 and the GAPDH max inhibition is listed as 26.13.

Consider “224 (GCTGTTTGGCCGGGCAGAAA; chemistry not given here) [compound 224]”, for which, in the data set on NRas mRNA, the 20% effect level (IC20) was put at 0.639 nM, the IC50 is 1.93 nM and the “max. inhib. [%]:” value worked out at 72.0%.

For the substance “252 (CCAAACAGCGTAACC; chemistry not given here) [compound 252]”, in the data set with NRas mRNA, the IC20 is 0.072 nM, the IC50 came out at 0.296 nM, the IC80 turned out to be 1.95 nM and the “max. inhib. [%]:” value was determined as 88.4%. Moreover, the NRAS max inhibition with NRas mRNA was 91.49. In addition, in the data set with GAPDH, the “2D GAPDH 20 nM inhibition” value is recorded as 13.40 and the GAPDH max inhibition came to 29.98.

In the case of “247 (AAACAGCGTAACCCCTTCTT; chemistry not given here) [compound 247]”, in the data set on NRas mRNA, the IC20 amounted to 0.122 nM, inhibition was half-maximal at 0.561 nM (IC50), the IC80 came to 4.14 nM and the “max. inhib. [%]:” value amounted to 88.8%. Besides, in the data set with NRas mRNA, the NRAS max inhibition is on record as 90.09. Moreover, in the data set with GAPDH, the “2D GAPDH 20 nM inhibition” value is reported as 25.39 and the GAPDH max inhibition is on record as 25.35.

Take “218 (GTTACGCTGTTTGGCCG; chemistry not given here) [compound 218]”: in the data set on NRas mRNA, the IC20 was found to be 0.139 nM, the IC50 was 0.427 nM, the IC80 was 1.94 nM and the “max. inhib. [%]:” value is given as 88.0%. Also, the NRAS max inhibition in the data set with NRas mRNA is reported as 90.00. For the same substance, in the data set with GAPDH, the “2D GAPDH 20 nM inhibition” value turned out to be 28.11 and the GAPDH max inhibition was found to be 25.71.
